The test system of assay [1] is REC-1 T474I cell lines. In words: Cell proliferation assay REC-1 BTK T474I knock-in cells (ATPlite, 72 hours). It is filed as cell-based. To be noted: Homo sapiens, Rec1; 72 hours; read-out: IC50 REC-1 T474I. The procedure, abridged: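 REC-1 cells carrying CRISPR knock-in mutant BTK, single-cell cloned and sequence-confirmed, were exposed to compound for 72 h and read by ATPlite luminescence. Percentage growth was calculated against the signal at the start of incubation and against untreated 0.3% DMSO wells as maximum growth.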
(In ATP-based viability assays light output follows the ATP content of the culture.)

The target of assay [2] is full-length BTK C481S enzyme (Homo sapiens (Human), UniProt Q06187, C481S). In words: Biochemical kinase assay BTK C481S (IMAP). The procedure, abridged: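 Full-length BTK C481S (1.2 nM) was pre-incubated with compound for 1 h at room temperature in the dark, then reacted with fluorescein-labelled MBP-derived peptide (50 nM) and ATP (7 μM) for 2 h. Reactions were quenched with IMAP binding solution, and IC50 values were derived from fluorescence polarization.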
Sequence of full-length BTK C481S enzyme (Q06187 whole entry C481S): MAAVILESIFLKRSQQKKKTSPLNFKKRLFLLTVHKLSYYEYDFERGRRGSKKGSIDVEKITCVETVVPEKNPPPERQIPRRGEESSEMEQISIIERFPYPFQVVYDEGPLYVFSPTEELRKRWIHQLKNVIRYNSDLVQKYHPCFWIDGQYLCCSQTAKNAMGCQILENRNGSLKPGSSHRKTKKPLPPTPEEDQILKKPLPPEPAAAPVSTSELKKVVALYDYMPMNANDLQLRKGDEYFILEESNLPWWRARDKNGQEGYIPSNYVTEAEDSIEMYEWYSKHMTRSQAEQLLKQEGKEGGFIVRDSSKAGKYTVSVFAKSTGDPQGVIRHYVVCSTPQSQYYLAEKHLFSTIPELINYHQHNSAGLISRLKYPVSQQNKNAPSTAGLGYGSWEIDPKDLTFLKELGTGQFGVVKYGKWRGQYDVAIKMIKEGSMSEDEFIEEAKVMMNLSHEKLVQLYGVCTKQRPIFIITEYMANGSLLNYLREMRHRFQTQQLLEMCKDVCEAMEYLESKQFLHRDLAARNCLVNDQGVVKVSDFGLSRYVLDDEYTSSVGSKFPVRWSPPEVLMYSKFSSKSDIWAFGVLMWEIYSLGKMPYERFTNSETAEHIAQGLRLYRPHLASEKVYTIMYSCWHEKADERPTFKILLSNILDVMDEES

The subject of assay [3] is wt-TMD8 diffuse large B-cell lymphoma cells. In words: Cell proliferation assay wt-TMD8 (ATPlite, 120 hours). To be noted: B-cell; wt-TMD8 cells, 120 hours, ATPlite; read-out: IC50 wt-TMD8. The class given is cell-based. The procedure:
Cell proliferation assay wt-TMD8 diffuse large B-cell lymphoma cells were purchased from Tokyo Medical and Dental University and cultured in RPMI-1640 cell culture medium (cat. no. 61870036, Life Technologies), supplemented with 10% (v/v) heat-inactivated fetal bovine calf serum and 1% penicillin/[…]. 1600 cells per well (in 45 μl) were seeded in a white 384-well culture plate (cat. no. 781080, Greiner Bio-One) and allowed to rest for at least 5 hours at 37° C., 95% humidity, and 5% CO2. 5 μl compound solution was added to the cells and incubation was continued for 120 hours (5 days), followed by addition of 24 μl ATPlite 1Step™ (PerkinElmer, Groningen, The Netherlands) solution was added to each well. Luminescence was recorded on an Envision multimode reader. The cell signal at the start of incubation was recorded separately in order to distinguish between cell population growth and cell death. In addition, maximum growth was determined by incubation of a duplicate without compound in the presence of 0.3% DMSO. Percentage growth was used as the main y-axis signal.

Assay [4] relates to wt-REC-1 mantle cell lymphoma cells. In words: Cell proliferation assay wt-REC-1 (ATPlite, 72 hours). The class given is cell-based. The note with it: 72 h; read-out: IC50 wt-REC-1. The procedure, abridged:
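Luminescent viability read over 72 h, start-of-incubation signal recorded separately to separate growth from cell death. Percentage growth referenced to compound-free 0.3% DMSO wells; IC50 from 4-parameter logistic fit.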

Assay [5] addresses full-length wt-BTK enzyme (Homo sapiens (Human), UniProt Q06187). In words: Biochemical kinase assay wt-BTK (IMAP). The procedure, abridged: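 IMAP fluorescence polarization assay: 1.2 nM enzyme pre-incubated 1 h with compound at room temperature, then 50 nM fluorescein-labeled MBP-derived peptide and 4 μM ATP added. Reaction ran 2 h at room temperature in the dark before quenching with IMAP binding solution.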

Structures are written as SMILES.

Sequence of full-length wt-BTK enzyme (Q06187 whole entry): as the sequence (Q06187 whole entry C481S) above, with S481C counted along it

As to `CC(=O)N1CC/C=C/c2cnc(N)c3c(-c4ccc(C(=O)Nc5cc(C(F)(F)F)ccn5)cc4)nn(c23)[C@@H]2CCC[C@H](C2)NC(=O)CC1` [Example 36], the IC50 in assay [1] was 100 to 500 nM; in assay [2], less than 5 nM; in assay [3], less than 100 nM; in assay [4] it was less than 100 nM; in assay [5], less than 5 nM.
In the case of `Nc1ncc2c3c1c(-c1ccc(C(=O)Nc4cc(C(F)(F)F)ccn4)cc1)nn3[C@@H]1CCC[C@H](C1)NC(=O)CCCCC/C=C/2` [Example 37], the IC50 in assay [1] was less than 100 nM; in assay [2], less than 5 nM; in assay [3] it was less than 100 nM; in assay [4] it was less than 100 nM; in assay [5], less than 5 nM.
For the compound `CN1CC/C=C/c2cnc(N)c3c(-c4ccc(C(=O)Nc5cc(C(F)(F)F)ccn5)cc4)nn(c23)[C@@H]2CCC[C@H](C2)NC(=O)CC1` [Example 38], the IC50 in assay [1] was less than 100 nM; in assay [2] it was less than 5 nM; in assay [3], less than 100 nM; in assay [4], less than 100 nM; in assay [5], less than 5 nM.
Consider `CN1CCC/C=C/c2cnc(N)c3c(-c4ccc(C(=O)Nc5cc(C(F)(F)F)ccn5)cc4)nn(c23)[C@@H]2CCC[C@H](C2)NC(=O)C1` [Example 41], for which the concentration for half-maximal inhibition (IC50) in assay [1] was less than 100 nM; in assay [2] it was less than 5 nM; in assay [3] it was less than 100 nM; in assay [4] it was less than 100 nM; in assay [5] it was less than 5 nM.
With `Nc1ncc2c3c1c(-c1ccc(C(=O)Nc4cc(C(F)(F)F)ccn4)cc1)nn3[C@@H]1CCC[C@H](C1)NC(=O)[C@H]1CCN1CC/C=C/2` [Example 42], the half-inhibitory concentration (IC50) was 100 to 500 nM in assay [1]; less than 5 nM in assay [2]; less than 100 nM in assay [3]; less than 100 nM in assay [4]; less than 5 nM in assay [5].
Take `C[C@H]1/C=C/c2cnc(N)c3c(-c4ccc(C(=O)Nc5cc(C(F)(F)F)ccn5)cc4)nn(c23)[C@@H]2CCC[C@H](C2)NC(=O)CCCN1C` [Example 43]: the IC50 in assay [1] was 500 to 10000 nM; in assay [2], less than 5 nM; in assay [3] it was less than 100 nM; in assay [4], 100 to 1000 nM; in assay [5], less than 5 nM.
With `C[C@@H]1CCn2nc(-c3ccc(C(=O)Nc4cc(C(F)(F)F)ccn4)cc3)c3c(N)ncc(c32)/C=C/CN2CC[C@H]2C(=O)N1` [Example 55], the half-maximal inhibitory concentration (IC50) in assay [1] was 500 to 10000 nM; in assay [2], less than 5 nM; in assay [3] it was less than 100 nM; in assay [4], 100 to 1000 nM; in assay [5], less than 5 nM.
For `C[C@@H]1CCn2nc(-c3ccc(C(=O)Nc4cc(C(F)(F)F)ccn4)cc3)c3c(N)ncc(c32)/C=C/CCCCCC(=O)N1` [Example 60], the IC50 was 500 to 10000 nM in assay [1]; less than 5 nM in assay [2]; less than 100 nM in assay [3]; less than 100 nM in assay [4]; less than 5 nM in assay [5].
For the compound `C[C@@H]1CCn2nc(-c3ccc(C(=O)Nc4cc(C(F)(F)F)ccn4)cc3)c3c(N)ncc(c32)/C=C/CCOCCC(=O)N1` [Example 69], the IC50 is 100 to 500 nM in assay [1]; less than 5 nM in assay [2]; less than 100 nM in assay [3]; 100 to 1000 nM in assay [4]; less than 5 nM in assay [5].
With `C[C@@H]1CCn2nc(-c3ccc(C(=O)Nc4cc(C(F)(F)F)ccn4)cc3)c3c(N)ncc(c32)/C=C/CCCOCC(=O)N1` [Example 70], the 50% inhibitory concentration (IC50) in assay [1] is 500 to 10000 nM; in assay [2], less than 5 nM; in assay [3], less than 100 nM; in assay [4] it was less than 100 nM; in assay [5], less than 5 nM.
Turning to `C[C@@H]1CCn2nc(-c3ccc(C(=O)Nc4cc(C(F)(F)F)ccn4)cc3)c3c(N)ncc(c32)/C=C/C[C@@H](C)OCCC(=O)N1` [Example 72], the IC50 in assay [1] is 500 to 10000 nM; in assay [2], less than 5 nM; in assay [3] it was less than 100 nM; in assay [4], less than 100 nM; in assay [5] it was less than 5 nM.
For the compound `C[C@@H]1CCn2nc(-c3ccc(C(=O)Nc4cc(C(F)(F)F)ccn4)cc3)c3c(N)ncc(c32)/C=C/C[C@H](C)OCCC(=O)N1` [Example 73], the IC50 in assay [1] is 100 to 500 nM; in assay [2], less than 5 nM; in assay [3], less than 100 nM; in assay [4] it was less than 100 nM; in assay [5], less than 5 nM.
In the case of `C[C@@H]1CCn2nc(-c3ccc(C(=O)Nc4cc(C(F)(F)F)ccn4)cc3)c3c(N)ncc(c32)/C=C/CCN2CC[C@@H]2C(=O)N1` [Example 74], the IC50 in assay [1] was 500 to 10000 nM; in assay [2], less than 5 nM; in assay [3], less than 100 nM; in assay [4], 100 to 1000 nM; in assay [5], less than 5 nM.
With `CC1CCn2nc(-c3ccc(C(=O)Nc4cc(C(F)(F)F)ccn4)cc3)c3c(N)ncc(c32)/C=C/C(O)CCCCC(=O)N1` (stereo not drawn) [Example 75], the IC50 in assay [1] is 500 to 10000 nM; in assay [2], less than 5 nM; in assay [3] it was less than 100 nM; in assay [4] it was 100 to 1000 nM; in assay [5] it was less than 5 nM.
On to `Nc1ncc2c3c1c(-c1ccc(C(=O)Nc4cc(C(F)(F)F)ccn4)cc1)nn3[C@@H]1CCCN(C1)C(=O)CCCC/C=C/2` [Example 77], for which the IC50 lay within 500 to 10000 nM in assay [1]; 5 to 50 nM in assay [2]; 100 to 1000 nM in assay [3]; 100 to 1000 nM in assay [4]; 5 to 50 nM in assay [5].
For `Nc1ncc2c3c1c(-c1ccc(C(=O)Nc4cc(C(F)(F)F)ccn4)cc1)nn3[C@@H]1CCCN(C1)C(=O)CCCCC/C=C/2` [Example 78], the IC50 in assay [1] is 500 to 10000 nM; in assay [2], less than 5 nM; in assay [3] it was less than 100 nM; in assay [4], 100 to 1000 nM; in assay [5] it was less than 5 nM.
Regarding `Nc1ncc2c3c1c(-c1ccc(C(=O)Nc4cc(C(F)(F)F)ccn4)cc1)nn3[C@@H]1CCCN(C1)C(=O)CCCCCCC/C=C/2` [Example 80], the 50% inhibitory concentration (IC50) was less than 100 nM in assay [1]; less than 5 nM in assay [2]; less than 100 nM in assay [3]; less than 100 nM in assay [4]; less than 5 nM in assay [5].
For the compound `Nc1ncc2c3c1c(-c1ccc(C(=O)Nc4cc(C(F)(F)F)ccn4)cc1)nn3[C@@H]1CCCN(C1)C(=O)CCCCCCCC/C=C/2` [Example 81], the IC50 in assay [1] is 100 to 500 nM; in assay [2], less than 5 nM; in assay [3] it was less than 100 nM; in assay [4] it was less than 100 nM; in assay [5], less than 5 nM.
`CN1C/C=C/c2cnc(N)c3c(-c4ccc(C(=O)Nc5cc(C(F)(F)F)ccn5)cc4)nn(c23)[C@@H]2CCCN(C2)C(=O)CCCC1` [Example 82]: the IC50 in assay [1] is 500 to 10000 nM; in assay [2], less than 5 nM; in assay [3] it was less than 100 nM; in assay [4] it was 100 to 1000 nM; in assay [5], less than 5 nM.
In the case of `Nc1ncc2c3c1c(-c1ccc(C(=O)Nc4cc(C(F)(F)F)ccn4)cc1)nn3[C@@H]1CCC[C@H](C1)C(=O)NCC/C=C\C2` [Example 86], the IC50 in assay [1] fell in the range of 500 to 10000 nM; in assay [2], 50 to 500 nM; in assay [3], 100 to 1000 nM; in assay [4], 100 to 1000 nM; in assay [5], 5 to 50 nM.
As for `Nc1ncc2c3c1c(-c1ccc(C(=O)Nc4cc(C(F)(F)F)ccn4)cc1)nn3[C@@H]1CCC[C@H](C1)NC(=O)COC/C=C\C2` [Example 97b], the IC50 is 500 to 10000 nM in assay [1]; less than 5 nM in assay [2]; less than 100 nM in assay [3]; 100 to 1000 nM in assay [4]; 5 to 50 nM in assay [5].
`Nc1ncc2c3c1c(-c1ccc(C(=O)Nc4ccccn4)cc1)nn3[C@@H]1CCC[C@H](C1)NC(=O)CCC/C=C\C2` [Example 99b]: the IC50 in assay [1] is 500 to 10000 nM; in assay [2] it was 5 to 50 nM; in assay [3], less than 100 nM; in assay [4], 100 to 1000 nM; in assay [5] it was 5 to 50 nM.
Consider `Nc1ncc2c3c1c(-c1ccc(C(=O)Nc4cc(C(F)(F)F)ccn4)cc1)nn3[C@@H]1CCC[C@H](C1)NC(=O)CCCCC/C=C\C2` [Example 101b], for which the IC50 was 500 to 10000 nM in assay [1]; less than 5 nM in assay [2]; less than 100 nM in assay [3]; 100 to 1000 nM in assay [4]; less than 5 nM in assay [5].
In the case of `Nc1ncc2c3c1c(-c1ccc(C(=O)Nc4ccccn4)cc1)nn3[C@@H]1CCC[C@H](C1)NC(=O)CCCCC/C=C\C2` [Example 102b], the IC50 was 500 to 10000 nM in assay [1]; less than 5 nM in assay [2]; less than 100 nM in assay [3]; 100 to 1000 nM in assay [4]; 5 to 50 nM in assay [5].

For orientation: IC50 means the midpoint of a concentration-inhibition curve.
